Measurements: publication PMC12948427 (The Journal of Clinical Investigation, 2025)
“And” between values parts separate entries of the source, which are not always exact repeats. Identical values can stand only once. Like-named read-outs stand apart in the source and are kept apart here.

Assays:
[1] = tested on: HCoV-NL63; assay: In vitro antiviral activity assay (IFA), HCoV-NL63; format: cell-based; conditions: for Inhibition rate (IFA): Fig 5C, MOI 0.1, 48 h
[2] = tested on: MHV; assay: microbe, parasite or virus in culture; format: cell-based, mouse hepatitis virus (MHV); conditions: Murine coronavirus, 24 h, read-out: EC50 (IFA)
[3] = tested on: 17Cl-1 cells
[4] = tested on: WIV1; format: cell-based, bat coronavirus WIV1
[5] = tested on: MHV; assay: microbe, parasite or virus in culture; conditions: Murine coronavirus, 24 h, read-out: EC50, rescue of coronavirus-induced cytopathic effects
[6] = tested on: SARS-CoV-2 Omicron BA.5; assay: microbe, parasite or virus in culture; format: cell-based; conditions: Severe acute respiratory syndrome coronavirus 2, 24 h, read-out: EC50 (IFA)
[7] = tested on: HCoV-OC43; assay: In vitro antiviral activity assay (IFA), HCoV-OC43; format: cell-based; conditions: for Inhibition rate (IFA): Fig 5E, MOI 0.1, 48 h
[8] = tested on: HCoV-229E; assay: In vitro antiviral activity assay (IFA), HCoV-229E; format: cell-based; conditions: for Inhibition rate (IFA): Fig 5F, MOI 0.1, 48 h
[9] = tested on: SARS-CoV-2 wild-type; assay: microbe, parasite or virus in culture; format: cell-based
[10] = tested on: WIV1; assay: microbe, parasite or virus in culture; format: cell-based, bat coronavirus WIV1; conditions: Bat coronavirus, 48 h, read-out: EC50 (IFA)
[11] = format: cell-based
[12] = tested on: MHV; format: cell-based, mouse hepatitis virus (MHV)
[13] = tested on: MHV
[14] = molecular target: M161 (SARS-CoV-2 M 135-161 peptide fused with HIV-TAT) (HIV | SARS-CoV-2) (UniProt P0DTC5); assay: SPR
[15] = molecular target: M146 (SARS-CoV-2 M 135-146 peptide fused with HIV-TAT) (HIV | SARS-CoV-2) (UniProt P0DTC5); assay: SPR
[16] = molecular target: M161 (SARS-CoV-2 M 135-161 peptide fused with HIV-TAT) (HIV | SARS-CoV-2) (UniProt P0DTC5); assay: SPR; remark: listed apart in the source
[17] = molecular target: M146 (SARS-CoV-2 M 135-146 peptide fused with HIV-TAT) (HIV | SARS-CoV-2) (UniProt P0DTC5); assay: SPR; remark: listed apart in the source

Sequence of hHGS 1-390-6 × HIS protein (O14964 1-390): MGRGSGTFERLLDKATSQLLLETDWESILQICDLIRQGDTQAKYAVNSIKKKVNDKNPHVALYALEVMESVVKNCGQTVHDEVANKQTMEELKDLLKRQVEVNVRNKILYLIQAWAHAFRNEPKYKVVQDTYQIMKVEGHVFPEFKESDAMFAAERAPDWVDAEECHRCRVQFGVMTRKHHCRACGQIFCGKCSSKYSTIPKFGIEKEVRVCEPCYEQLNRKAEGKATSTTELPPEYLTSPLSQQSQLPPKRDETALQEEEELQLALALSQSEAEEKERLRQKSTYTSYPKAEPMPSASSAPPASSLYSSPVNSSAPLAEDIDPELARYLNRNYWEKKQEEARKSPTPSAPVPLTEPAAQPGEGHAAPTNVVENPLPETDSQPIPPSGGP
Sequence of M161 (SARS-CoV-2 M 135-161 peptide fused with HIV-TAT) (HIV | SARS-CoV-2) (P0DTC5 135-161 limits assumed): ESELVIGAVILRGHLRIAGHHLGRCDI

Molecule: CCC(CC)COC(=O)[C@H](C)N[P@](=O)(OC[C@H]1O[C@@](C#N)(c2ccc3c(N)ncnn23)[C@H](O)[C@@H]1O)Oc1ccccc1 [RDV, remdesivir]
- Inhibition rate (IFA) ([1]; conc 10 (unit not given)): -13.7402% and -16.2366% and -15.0261%
- Inhibition rate (IFA) ([1]; conc 300 (unit not given)): 80.1311% and 63.4462% and 86.5422%
- Inhibition rate (IFA) ([1]; conc 1000 (unit not given)): 98.8533% and 99.4472% and 99.9344%
- Inhibition rate (IFA) ([1]; conc 3000 (unit not given)): 99.4236% and 99.6729% and 98.5431%
- Inhibition rate (IFA) ([1]; conc 10000 (unit not given)): 99.8898% and 100.315% and 100.324%
- Inhibition rate (IFA) ([1]; conc 25000 (unit not given)): 100.095% and 100.184% and 100.326%
- EC50 ([1]; Human coronavirus NL63, 48 h, read-out: EC50 (IFA)): 200 nM
- EC50 [2]: 1290 nM
- cell viability, Figures S9A, B, D-F ([3]; concentration 0.01): 103.896 and 102.857
- cell viability, Figures S9A, B, D-F ([3]; concentration 0.03): 100
- cell viability, Figures S9A, B, D-F ([3]; concentration 0.1): 100
- cell viability, Figures S9A, B, D-F ([3]; concentration 0.3): 100
- cell viability, Figures S9A, B, D-F ([3]; concentration 1): 100
- cell viability, Figures S9A, B, D-F ([3]; concentration 3): 100
- cell viability, Figures S9A, B, D-F ([3]; concentration 10): 100
- cell viability, Figures S9A, B, D-F ([3]; concentration 25): 100
- extracellular viral gRNA levels (RT-qPCR) [4]: 1.00 and 2.00
- EC50 [5]: 690 nM
- EC50 [6]: 1730 nM
- EC50 ([7]; Betacoronavirus 1, OC43, 48 h, read-out: EC50 (IFA)): 410 nM
- Inhibition rate (IFA) ([7]; conc 10 (unit not given)): 50.23% and 41.56% and 35.15%
- Inhibition rate (IFA) ([7]; conc 30 (unit not given)): 35.85% and 33.9% and 36.83%
- Inhibition rate (IFA) ([7]; conc 100 (unit not given)): 54.42% and 40.68% and 45.58%
- Inhibition rate (IFA) ([7]; conc 300 (unit not given)): 65.9% and 68.1% and 71.65%
- Inhibition rate (IFA) ([7]; conc 1000 (unit not given)): 93.48% and 93.42% and 95.53%
- Inhibition rate (IFA) ([7]; conc 3000 (unit not given)): 103.3% and 99.46% and 99.73%
- Inhibition rate (IFA) ([7]; conc 10000 (unit not given)): 112.73% and 104.65% and 109.25%
- Inhibition rate (IFA) ([7]; conc 25000 (unit not given)): 117.32% and 112.33% and 115.73%
- Inhibition rate (IFA) ([8]; conc 30 (unit not given)): -0.99% and -1.45% and 0.82%
- Inhibition rate (IFA) ([8]; conc 100 (unit not given)): -0.44% and -1.37% and -2.88%
- Inhibition rate (IFA) ([8]; conc 300 (unit not given)): 11.16% and 13% and 6.71%
- Inhibition rate (IFA) ([8]; conc 1000 (unit not given)): 47.55% and 40.71% and 45.97%
- Inhibition rate (IFA) ([8]; conc 3000 (unit not given)): 81.01% and 82.05% and 81.07%
- Inhibition rate (IFA) ([8]; conc 10000 (unit not given)): 97.22% and 97.53% and 97.6%
- Inhibition rate (IFA) ([8]; conc 25000 (unit not given)): 98.73% and 98.28%
- EC50 ([8]; Human coronavirus 229E, 48 h, read-out: EC50 (IFA)): 1010 nM
- Inhibition rate (IFA) [9]: -18.2121%
- EC50 ([9]; Severe acute respiratory syndrome coronavirus 2, 24 h, read-out: EC50 (IFA)): 3.51 µM
- EC50 [10]: 2420 nM
- Inhibition, time-of-drug-addition (Figures S12A, S12B) ([11]; 1h, concentration 30 (unit not given)): 5.191 and 6.604 and 3.913
- Inhibition, time-of-drug-addition (Figures S12A, S12B) ([11]; 1h, concentration 300 (unit not given)): 29.4212 and 36.852 and 30.2123
- Inhibition, time-of-drug-addition (Figures S12A, S12B) ([11]; 1h, concentration 1000 (unit not given)): 94.0553 and 94.9808 and 93.9778
- Inhibition, time-of-drug-addition (Figures S12A, S12B) ([11]; 1h, concentration 3000 (unit not given)): 100.171 and 99.7032 and 100.277
- Inhibition, time-of-drug-addition (Figures S12A, S12B) ([11]; 1h, concentration 10000 (unit not given)): 100.334 and 99.9318 and 99.6732
- Inhibition, time-of-drug-addition (Figures S12A, S12B) ([11]; 1h, concentration 25000 (unit not given)): 99.7405 and 99.6154 and 100.895
- Inhibition, time-of-drug-addition (Figures S12A, S12B) ([11]; 3h, concentration 300 (unit not given)): 9.79 and 17.6203 and 16.0643
- Inhibition, time-of-drug-addition (Figures S12A, S12B) ([11]; 3h, concentration 1000 (unit not given)): 55.9963 and 60.6001 and 59.2495
- Inhibition, time-of-drug-addition (Figures S12A, S12B) ([11]; 3h, concentration 3000 (unit not given)): 88.3762 and 86.7679 and 87.568
- Inhibition, time-of-drug-addition (Figures S12A, S12B) ([11]; 3h, concentration 10000 (unit not given)): 90.2121 and 88.9101 and 87.2358
- Inhibition, time-of-drug-addition (Figures S12A, S12B) ([11]; 3h, concentration 25000 (unit not given)): 90.2507 and 90.1885 and 92.1218
- Inhibition, time-of-drug-addition (Figures S12A, S12B) ([11]; 5h, concentration 1000 (unit not given)): 25.3228 and 41.8171 and 37.9682
- Inhibition, time-of-drug-addition (Figures S12A, S12B) ([11]; 5h, concentration 3000 (unit not given)): 84.9456 and 81.9798 and 79.5741
- Inhibition, time-of-drug-addition (Figures S12A, S12B) ([11]; 5h, concentration 10000 (unit not given)): 96.9121 and 98.7645 and 101.081
- Inhibition, time-of-drug-addition (Figures S12A, S12B) ([11]; 5h, concentration 25000 (unit not given)): 101.735 and 102.093 and 102.226
- Inhibition, time-of-drug-addition (Figures S12A, S12B) ([11]; 7h, concentration 3000 (unit not given)): 42.654 and 32.1868 and 38.6066
- Inhibition, time-of-drug-addition (Figures S12A, S12B) ([11]; 7h, concentration 10000 (unit not given)): 72.2116 and 77.3057 and 82.6181
- Inhibition, time-of-drug-addition (Figures S12A, S12B) ([11]; 7h, concentration 25000 (unit not given)): 95.7566 and 91.5378 and 92.3496
- antiviral activity versus time of treatment start ([11]; RTB 25 μM or RDV 5 μM added at 0, 2, 4 or 6 hpi): decreased in a time-dependent manner
- Extracellular MHV gRNA (Figure S11A) ([12]; Ctr 17Cl-1 cells, 24 hpi): 1.417 and 1.434 and 1.4484
- Extracellular MHV gRNA (Figure S11A) ([12]; Ctr 17Cl-1 cells, 48 hpi): 2.342 and 2.426 and 2.427
- Extracellular MHV gRNA (Figure S11A) ([12]; Ctr 17Cl-1 cells, 72 hpi): 2.913 and 2.938 and 2.965
- Extracellular MHV gRNA (Figure S11A) ([12]; Hgs-KO1 17Cl-1 cells, 24 hpi): 0.1732 and 0.2504 and 0.2945
- Extracellular MHV gRNA (Figure S11A) ([12]; Hgs-KO1 17Cl-1 cells, 48 hpi): 0.5159 and 0.4955 and 0.5011
- Extracellular MHV gRNA (Figure S11A) ([12]; Hgs-KO1 17Cl-1 cells, 72 hpi): 0.5763 and 0.5575 and 0.5302
- Extracellular MHV gRNA (Figure S11A) ([12]; Hgs-KO2 17Cl-1 cells, 48 hpi): 0.243 and 0.2742 and 0.2718
- Extracellular MHV gRNA (Figure S11A) ([12]; Hgs-KO2 17Cl-1 cells, 72 hpi): 0.4771 and 0.48 and 0.4728
- antiviral activity in Hgs-KO cells ([12]; MHV, Hgs-KO 17Cl-1, RTB 25 μM or RDV 5 μM, compared with DMSO-treated Hgs-KO cells): maintained potent antiviral activity
- viability of infected cells (rescue of cytopathic effect), Figures S9G-L ([13]; concentration 10): 46.7323 and 45.5347 and 44.3372
- viability of infected cells (rescue of cytopathic effect), Figures S9G-L ([13]; concentration 30): 45.5347 and 43.8916 and 43.4181
- viability of infected cells (rescue of cytopathic effect), Figures S9G-L ([13]; concentration 100): 50.492 and 47.7906 and 49.378
- viability of infected cells (rescue of cytopathic effect), Figures S9G-L ([13]; concentration 300): 59.7939 and 57.0925 and 55.143
- viability of infected cells (rescue of cytopathic effect), Figures S9G-L ([13]; concentration 1000): 78.2027 and 84.5804 and 83.9955
- viability of infected cells (rescue of cytopathic effect), Figures S9G-L ([13]; concentration 3000): 102.237 and 100.176 and 102.46
- viability of infected cells (rescue of cytopathic effect), Figures S9G-L ([13]; concentration 10000): 103.491 and 100.789 and 102.906
- viability of infected cells (rescue of cytopathic effect), Figures S9G-L ([13]; concentration 25000): 101.903 and 103.017 and 102.042

Molecule: hHGS 1-390-6 × HIS protein (from UniProt O14964 1-390) (domain or fragment)
- Kd [14]: 830 nM
- Kd [15]: 210 nM
- Kd [16]: 3.84 nM
- Kd [17]: 5.73 nM
